Reference: patent publication US7816489B2, “Methods for making intermediates and oxytocin analogues” (Ferring B.V., priority 2002, dated 2010)

Biological target: T1, Recombinant human oxytocin receptors (Homo sapiens, UniProt P30559)
T1 construct: expressed in transfected cells; host or cells: CHO cells
T1 sequence (P30559 1-389): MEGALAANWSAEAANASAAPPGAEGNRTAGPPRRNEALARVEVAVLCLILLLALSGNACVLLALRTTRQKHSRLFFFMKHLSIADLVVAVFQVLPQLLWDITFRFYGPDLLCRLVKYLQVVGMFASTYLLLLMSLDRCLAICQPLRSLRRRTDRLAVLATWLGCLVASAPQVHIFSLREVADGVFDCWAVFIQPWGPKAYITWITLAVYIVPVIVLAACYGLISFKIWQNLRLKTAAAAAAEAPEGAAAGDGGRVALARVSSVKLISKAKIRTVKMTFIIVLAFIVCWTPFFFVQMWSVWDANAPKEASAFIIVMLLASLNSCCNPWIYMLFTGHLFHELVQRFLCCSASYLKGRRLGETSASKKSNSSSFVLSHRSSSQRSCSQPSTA
Test: Oxytocin receptor binding assay, [125I]-oxytocin, membrane fraction of CHO cells
Conditions: receptors expressed in CHO cells; [125I]-oxytocin displacement; read-out: inhibition constant Ki
Procedure: Recombinant human oxytocin receptors were expressed in CHO cells using standard molecular biological techniques. A membrane fraction was prepared and incubated in the presence of [^125I]-oxytocin and varying concentrations of equivalent heptapeptide analogue. Membranes were then isolated by filtration and counted for radioactivity to determine oxytocin binding. An inhibition constant Ki was determined for the analogue.

Ki: 0.1 nM
Structure (SMILES): CC[C@@H](C)[C@@H]1NC(=O)[C@H]([C@@H](C)CC)NC(=O)[C@@H](Cc2c[nH]c3ccccc23)NC(=O)CCSCC[C@@H](C(=O)N(C)[C@H](CO)CCCN)NC(=O)[C@H](CC(N)=O)NC1=O [IV]
